Results published in patent publication US8426203B2, “Culture medium containing gamma-aminobutyric acid, pipecolic acid or lithium for the maintenance of stem cells in an undifferentiated state” (Wisconsin Alumni Research Foundation, priority 2004, dated 2013).

Columns and labels:
human ES cells = assay: TeSR1 minus individual components, growth curve and FACS over three passages; assay type: cell-based
Experimental: FIG. 4 is a graphical representation of data showing that the medium described here results in robust growth of pluripotent stem cells in culture. Specifically, what is shown is growth curve analysis for human ES cells cultured in complete TeSR1 (positive control), and TeSR1 minus the following individual components: TGFβ, pipecolic acid (PA), GABA, LiCl and bFGF, and TeSR1 minus all five growth factors (TeSR1—ALL or negative control); 3×10^5 cells were plated at day 0 of each passage.
Triplicate wells of resulting cells were analyzed on day 6 of passage 3 by FACS for human ES cell markers. All results are presented for the H1 cell line; similar results were obtained for cell lines H7, H9 and H14.
Inventors used human ES cell lines H1, H7, H9 and H14 (Thomson, J. A. et al. Science 282, 1145-1147 (1998)) in a program of human ES cell media optimization that included modifications to the physiochemical environment, growth factor supplements and matrix components. To accomplish this, human ES cell lines H1, H7, H9, and H14 were cultured on Matrigel (Becton Dickinson) in fibroblast-conditioned medium as previously described (Xu, C. et al. Nature Biotechnology 19, 971-974 (2001)). Cells were transitioned into test media by direct passage from conditioned medium. Cultures of human ES cells were routinely passaged in clumps at approximately weekly intervals onto Matrigel or human matrix-coated plates by exposure to dispase (2.0 or 0.5 mg/ml respectively: Invitrogen). Following 7 minutes of dispase exposure, cells were rinsed 3 (three) times on the plate with medium, followed by gentle scraping to collect. Colonies were further broken up by gentle pipetting and then plated. The human matrix-coated plates were composed of 10 μg/cm^2 human collagen IV (Sigma or Becton Dickinson), 0.2 μg/cm^2 human vitronectin (Sigma), 5 μg/cm^2 human fibronectin (Sigma or Becton Dickinson) and 5 μg/cm^2 human laminin (Sigma). During the course of these studies we successfully used 4 lots of fibronectin, 2 lots of collagen, 3 lots of laminin, and 3 lots of vitronectin. For growth curve proliferation studies, 3-5×10^5 cells were plated on Day 0 of each passage into conditioned medium, TeSR1 or TeSR1 minus the following components: TGFβ, PA, GABA, LiCl and bFGF. Cells were cultured for three passages. Cells were harvested on Day 2-3 and Day 6-7 and counted using a Trypan Blue exclusion assay. At the end of passage three, cells were individualized by treatment with trypsin/EDTA and were analyzed by FACS for human ES cell markers Oct-4, SSEA-4, Tra 1-60 and Tra 1-81 as subsequently described.

[1] = tested on: human pluripotent stem cells; assay: Omission of medium components, Oct-4 expression after seven days; assay type: cell-based; details: for effect of omitting constituent on percentage of undifferentiated cells: Oct-4 expression
Experimental: While a medium with all of the above constituents is sufficient and is preferred, not all of the components are necessary for the successful culture of human pluripotent stem cells. Depending on the amount of differentiated cells one is willing to tolerate, some of the components of the medium can be omitted, particularly if the medium is only used for a few passages. To further explore which constituents might be omitted, human pluripotent stem cells were cultured on variants of the above medium with differing components omitted. Two hundred thousand cells were plated and grown for seven days on each experimental medium, two wells per treatment. The cells were then assayed for expression of the transcription factor Oct-4, a recognized marker of undifferentiated cells.
The data from that experiment are presented graphically in FIG. 7, where the numbers of Oct-4 expressing cells in each experimental medium are presented as a fraction of that from the preferred medium TeSR1. […] The difference between the percentage of undifferentiated cells and the omitted constituent is quantitative. Regardless of the omitted constituent, the medium does work, at least to some degree for limited cell passages, without each of the omitted components.

ES03-DL1-K hES cells = assay: Cloning efficiency at different BME concentrations in TeSR1; assay type: cell-based, human
Experimental: FIG. 15 illustrates the growth of hES cells grown in mTeSR1 with five different concentrations of beta mercaptoethanol (βME). ES03-DL1-K were grown for one to five passages, visualized (a), counted to determine proliferation and cloning efficiency (b), and stained using […] for Oct-4 and SSEA-4 to identify differentiation status of the cells (c). The treatment concentrations consisted of 0, 1.75, 3.5, 7, and 14 μL βME/500 mL of total TeSR1 media. Results shown are the mean from growth in 3 wells/treatment. This experiment was repeated multiple times both with ES03-DL1-K and H9-WA09 cells with similar results.
Specifically, to optimize the physiochemical environment, human ES cells with an EGFP reporter gene and a neomycin resistance cassette under control of the endogenous Oct-4 gene were utilized for the physiochemical optimization assays. […] At the end of the growth period, cells from independent wells were individualized by treatment with trypsin/EDTA, counted and subjected to FACS analysis as subsequently described. To determine cloning efficiency of the cells, resulting colonies were stained with BCIP/NTB alkaline phosphatase substrate kit IV (Vector Laboratories) and counted. Percentages were determined by dividing colony number obtained by the initial number of cells plated. […]

Molecule | effect of removal of the factor from TeSR1 on culture performance (human ES cells) | effect of omitting constituent on percentage of undifferentiated cells [1] | cloning efficiency of the cells (ES03-DL1-K hES cells; 0 and 1.75 μL BME/500 mL of total media, modified TeSR1) | increase in cloning efficiency (ES03-DL1-K hES cells; BME omitted or less than about 0.1 mM in TeSR1 vs same medium with higher than about 0.1 mM BME) | necessity of component (Oct-4 expressing cells as fraction of TeSR1) ([1]; short-term culture, high levels of FGF) | effect of removal from TeSR1 on total cell number and percentage of cells expressing ES cell markers (human ES cells)
[Cl-].[Li+] [LiCl, lithium chloride] | significantly decreased some parameter of culture performance | increased percentages of undifferentiated cells |  |  |  | 
OCCS [BME, β-mercaptoethanol] |  |  | large increases in cloning efficiency | at least 10% |  | 
NCCCC(=O)O [GABA, gamma-aminobutyric acid] | significantly decreased some parameter of culture performance | increased percentages of undifferentiated cells |  |  |  | 
O=C(O)C1CCCCN1 (stereo not shown) [PA, pipecolic acid] | significantly decreased some parameter of culture performance | increased percentages of undifferentiated cells |  |  |  | 
TGFβ: transforming growth factor beta | significantly decreased some parameter of culture performance |  |  |  | least necessary component | 
bFGF: fibroblast growth factor, also referred to as FGF2 | significantly decreased some parameter of culture performance | increased percentages of undifferentiated cells |  |  |  | consistently decreased
